Laboratory results taken from paper PMC11148078, “Potent activity of polymyxin B is associated with long-lived super-stoichiometric accumulation mediated by weak-affinity binding to lipid A” (Nature Communications, 2024).
pKd: −log10 of the molar value. Like-named read-outs stand apart in the source and are kept apart here. Bridge positions count the residues as written; N and C are the ends. Square brackets hold non-standard residues; d marks the D form. Peptide text beside a SMILES is read from it. * marks the point of attachment. X1 = CC[C@H](C)CCCCC(=O)*; Dab = NCC[C@H](N)C(=O)O

Legend:
[1] = test system: mammalian extracellular vesicles (Expi293 cells); assay: SPR binding to mammalian vesicles on LP chip; conditions: 312.5 nM–40 µM, 25 °C
From the text: tween-80 (SI Fig. S4F). Note that higher concentrations were used to resolve the interaction above non-specific chip binding and the loss of polymyxin B to binding of plastics as discussed […]
OMVs isolated from polymyxin-resistant bacteria (resistant-OMVs) were composed of modified lipid A (SI Table S1 and SI Fig. S6) and were immobilized via amine-coupled polymyxin B to the surface of a C1 chip (SI Fig. S4G). Given the results of our studies here, the binding of resistant-OMVs to the amine-coupled polymyxin B surface (stably, at least within the time frames used here) is not surprising. OMVs have several advantages over whole cells and purified LPS. They can be produced in large batches and frozen for multiple experiments. OMVs can be isolated from potentially any genetic background (such as the two polymyxin-resistant strains used here), from potentially any gram-negative bacterial strains, and allow interrogation of types of LPS which are not commercially available (ex. modified lipid A species). […]
Analysis and compartment temperature were set to 25°C. Mammalian vesicles from Expi293 cells were isolated as described19 by harvesting supernatants and concentrating vesicles via ultra-centrifugation (120,000 xg, 4°C, 1h), washing, suspending pellet in PBS, quantifying by Bradford protein assay, and diluting to […] in PBS. […]

wt-OMVs = assay: SPR chaser analysis (residence time), wt-OMVs; format: binding, E. coli; conditions: for t1/2: n≥3, (SD)
Method: The off-rate of the tightly bound fraction was estimated using a chaser analysis, where OMVs were pre-saturated with polymyxin B and then re-saturated after an extended time interval (Supplementary Information Fig. S11A). […] A t1/2 of >6 h was determined for polymyxin B binding to OMVs at both 25 and 37 °C (SI Table S3). The t1/2 of brevicidine, also measured by chaser analysis, was approximately 1 h on both wt-OMVs and polymyxin-resistant-OMVs (SI Table S3).
Binding and kinetic analysis of SPR-OMV assays […]
To determine the residence time of the test compound with OMVs, the ‘chaser method’ was used because it accounts for drift that can occur in the system over long incubation times 13. OMVs were loaded onto the chip as described above then 5 µM polymyxin B was injected using the ‘low-sample consumption’ setting for 300 sec ([…] flow rate), followed by a 240 sec dissociation time. A second dose of 5 µM polymyxin B was then injected for 60 sec ([…]) to assure saturation followed by a 2 h dissociation time prior to the ‘chaser’, a 60 sec pulse of 5 µM polymyxin B. The RUs of associated polymyxin B were determined 120 sec after the start of the dissociation. The change in RUs from before dosing to after the second dose, and the change in RUs from prior to the ‘chaser’ dose and 120 sec after the start of its dissociation were used to calculate the fraction occupancy of the material and the residence time/half-life as described 13. […]
PMBN) to LPS for 20 min. […]
20 sec with a Solarus plasma cleaner (Gatan). Grids were blotted and plunge-frozen by Vitrobot (ThermoFisher Scientific, Waltham, MA) at 4°C, 100% relative humidity, blot force 7, and a 3 sec […]
TEM data collection was performed using a Titan Krios G3i (ThermoFisher Scientific, Waltham, MA) operating at 300 kV equipped with a BioQuantum energy filter and a K3 Summit direct electron detector operating at a nominal magnification of 105,000x (0.838 Å/pixel), an energy slit width of 20 eV, defocus range -1 to -3 μm, 3-sec exposure time, 60 frames per movie, a total electron fluence of ~64 e/Å2. Microscope and camera automation was accomplished by SerialEM14, and image processing (motion correction & CTF estimation) was performed using […]
Standard cryo-EM image processing software and methods were incompatible with the vesicle images, so a blinded visual scoring method for image analysis was used. Approximately 50 images from each sample and treatment condition that each contained at least one OMV (pooled in a single folder and blinded) were scored for number of vesicles touching (0-10+), and if the vesicle membranes appeared disrupted or abnormal. Sampling was not completely random as images of vesicles could not be obtained from areas with significant clumping. Images shown in […]

[2] = test system: polymyxin B-resistant E. coli cells expressing mcr-1; assay: Whole cell SPR, E. coli expressing mcr-1; format: binding
Method: (§1) Bacterial strains were grown in LB or LB with 0.2% arabinose and carbenicillin (50 μg/mL) to log phase (OD600 approximately 0.4–0.6), centrifuged for 10 min at 2500 × g (3500 rpm using a tabletop centrifuge), and re-suspended in PBS to a final OD600 of approximately 5. SPR on whole bacterial cells was performed and analyzed as described for OMVs on C1 chip, but with an additional carry-over wash prior to the capture. Regeneration of the chip after whole cell binding also required additional steps ([…] flow rate): (1) PBS supplemented with 32 mM MgCl2 for 120 s, (2) 2.5 M NaCl for 30 s, (3) 0.5% SDS (Desorb 1, Cytiva) for 60 s with carry over controls between.

[3] = test system: polymyxin B-resistant E. coli PmrA^G53E cells; assay: Whole cell SPR, E. coli PmrA^G53E; format: binding
Method: as §1

bacterial cells = conditions: different methods, ref [27]–[31], cited from earlier work
Method: Investigations into the binding of polymyxins to bacterial cells have generally relied on whole-cell and plate-based equilibrium approaches. Different methods have produced equilibrium binding constants (KDs) for polymyxin B ranging from 400 nM up to greater than 100 µM[27]–[31], which are, in some cases, multiple orders-of-magnitude higher than the reported cellular potency of these antibiotics. However, these approaches are likely complicated by the rapid kill-kinetics of polymyxins, non-specific binding of polymyxins to plate surfaces, assumptions of a simple binding mechanism, an inoculum ...

lipid A / outer membrane = test system: lipid A / outer membrane; parameters: method as in PMID 6414364, PMID 10956216; conditions: ref [20],[21]; cited from earlier work

SMILES | SPR binding to mammalian cell derived vesicles [1] | t1/2 of tightly bound state (wt-OMVs; 25 and 37 °C) | t1/2 (wt-OMVs; 25 °C) | t1/2 (wt-OMVs; 37 °C) | SPR binding profile [2] | SPR binding profile [3] | pKd (bacterial cells; read-out: equilibrium binding constant KD, lower end) | pKd (bacterial cells; read-out: equilibrium binding constant KD, upper end) | antibacterial activity and lipid A binding (lipid A / outer membrane)
CC[C@H](C)CCCCC(=O)N[C@@H](CCN)C(=O)N[C@H](C(=O)N[C@@H](CCN)C(=O)N[C@H]1CCNC(=O)[C@H]([C@@H](C)O)NC(=O)[C@H](CCN)NC(=O)[C@H](CCN)NC(=O)[C@H](CC(C)C)NC(=O)[C@@H](Cc2ccccc2)NC(=O)[C@H](CCN)NC1=O)[C@@H](C)O [Polymyxin B] (X1-[Dab]T[Dab][Dab][Dab][dF]L[Dab][Dab]T; lactam 4-C (inferred); N-terminus assumed) | distinct from what we observe with OMVs and bacterial cells | > 6 h | 6.86 (2.11) h | 7.27 (2.15) h | same polymyxin B binding profiles were observed | same polymyxin B binding profiles were observed | 6.40 | < 4.00 | 
CC(C)C[C@@H]1NC(=O)[C@@H](Cc2ccccc2)NC(=O)[C@H](CCN)NC(=O)[C@@H](NC(=O)[C@H](CCN)NC(=O)[C@@H](N)[C@@H](C)O)CCNC(=O)[C@H]([C@@H](C)O)NC(=O)[C@H](CCN)NC(=O)[C@H](CCN)NC1=O [PMBN] (H-T[Dab][Dab][Dab][dF]L[Dab][Dab]T; lactam 3-C) |  |  |  |  |  |  |  |  | do not possess antibacterial activity, nonetheless bind to lipid A and permeabilize the outer membrane
